Measured values: PMC6584114, “Metabolism of IMM-H004 and Its Pharmacokinetic-Pharmacodynamic Analysis in Cerebral Ischemia/Reperfusion Injured Rats” (Frontiers in Pharmacology, 2019)

Columns and labels:
[1] = system: plasma malondialdehyde (MDA); test: Plasma MDA suppression (PD) in MCAO/R rats; format: in vivo, rat; conditions: iv IMM-H004 citrate 10 mg/kg after reperfusion
Method: (§1) The plasma pharmacokinetics (PK) and pharmacodynamics (PD) of IMM-H004 and IMM-H004G were investigated in a cerebral ischemia-reperfusion rat model produced by middle cerebral artery occlusion/reperfusion (MCAO/R) after iv administration of IMM-H004. In brief, rats underwent a 1-h MCAO and then received IMM-H004 citrate (10 mg/kg, dissolved in saline to yield a concentration of 2 mg/ml) immediately after reperfusion, an effective dosing time as reported ([Zuo et al., 2015]; [Yang et al., 2017]). For sham surgery, all the arteries were exposed for the surgical period, but the filament was not inserted into the MCA. Blood samples were collected through external jugular vein cannula into heparinized tubes at 0.033, 0.167, 0.5, 1, 2, 4, 6, 8, 12, 24, 36, and 48 h postdose for IMM-H004 and IMM-H004G detection (50 μL of blood at each time point) and at 0.5, 1, 2, 4, 7, and 10 h postdose for malondialdehyde (MDA) detection (80 μL of blood at each time point). Plasma was immediately separated by centrifugation at 900×g for 5 min. Plasma concentrations of IMM-H004 and IMM-H004G in ischemia-reperfusion rats were determined by LC-MS/MS analysis. The PK parameters were calculated by noncompartmental analysis using WinNonlin Version 6.1 (Pharsight, Mountain View, CA). Plasma MDA concentrations in ischemia-reperfusion and sham rats within 24 h were estimated by enzyme-linked immunosorbent assay.

[2] = system: rat liver microsomes (RLMs), UGT; test: Kinetics of IMM-H004G formation (glucuronidation) in UDPGA-supplemented rat liver microsomes; format: in vitro ADME; conditions: substrate IMM-H004
Method: To explore glucuronidation difference of IMM-H004 between humans and rats, the kinetics of IMM-H004G formation in UDPGA-supplemented HLMs and RLMs were determined. The incubation mixtures consisted of HLMs or RLMs (0.025 mg protein/ml), alamethicin (50 μg/mg protein), IMM-H004 (0.5–2,500 μM), and UDPGA (5 mM) in a final volume of 0.2 ml Tris-HCl buffer (50 mM, pH 7.4) containing 5 mM MgCl2. HLM or RLM was preincubated with alamethicin on ice for 15 min. The reaction was incubated at 37°C for 10 min and quenched by adding 200 μL of ice-cold acetonitrile containing IS (100 ng/ml). After vortex-mixing and centrifugation, IMM-H004G in the supernatant was analyzed by LC-MS/MS.
The LC-MS/MS system consisted of Shimadzu 30A UPLC and API 4000 triple quadruple mass spectrometer (AB SCIEX, USA). Data acquisition and analysis were accomplished using Analyst 1.5.2 software. The analytes and IS were chromatographed by injection of 1 μL sample. The mobile phases consisted of solvent A (0.5% formic acid in water) and solvent B (0.5% formic acid in methanol) at a flow rate of 0.3 ml/min on an Eclipse Plus C18 column (2.1 mm × 50 mm, 3.5 μm, Agilent, USA), and the operating temperature was 40°C. […] The specific transitions monitored were 305→248 for IMM-H004, 291→234 for M1, 291→248 for M2, 481→305 for IMM-H004G, 385→305 for M4, and 260→183 for IS.

[3] = Excretion in rat urine, bile and feces after iv IMM-H004 citrate; format: in vivo; conditions: iv IMM-H004 citrate 6 mg/kg
Method: After intravenous (iv) injection with IMM-H004 citrate (6 mg/kg, dissolved in saline to yield a concentration of 1.2 mg/ml), rats were housed individually in metabolic cages to allow separate collection of urine and feces until 72 h postdose. Additional rats were bile cannulated under light ether anesthesia. Each rat was housed individually in a metabolic cage and allowed to recover from anesthesia for 2 to 3 h. Then bile duct cannulated rats were iv injected with IMM-H004 citrate (6 mg/kg, dissolved in saline to yield a concentration of 1.2 mg/ml), bile samples were collected until 24 h postdose.
Feces samples were homogenized in 10-fold solvent of water and methanol (1:1) and diluted 10-fold in water. Bile and urine samples were diluted 100-fold in water. The concentrations of IMM-H004, M1, M2, and IMM-H004G in diluted bile, urine, and feces samples were determined by LC-MS/MS.
(§2) The LC-MS/MS system consisted of Shimadzu 30A UPLC and API 4000 triple quadruple mass spectrometer (AB SCIEX, USA). Data acquisition and analysis were accomplished using Analyst 1.5.2 software. The analytes and IS were chromatographed by injection of 1 μL sample. The mobile phases consisted of solvent A (0.5% formic acid in water) and solvent B (0.5% formic acid in methanol) at a flow rate of 0.3 ml/min on an Eclipse Plus C18 column (2.1 mm × 50 mm, 3.5 μm, Agilent, USA), and the operating temperature was 40°C. The elution condition was 10% solvent B for 0.7 min, ascending to 98% B in 2.3 min, holding for 3.0 min and reequilibrating to 10% B within 0.1 min and maintained for 2.4 min (Jiang JW, 2018). The specific transitions monitored were 305→248 for IMM-H004, 291→234 for M1, 291→248 for M2, 481→305 for IMM-H004G, 385→305 for M4, and 260→183 for IS.

[4] = Plasma pharmacokinetics in MCAO/R rats after iv IMM-H004 citrate; format: in vivo; conditions: rat, iv IMM-H004 citrate 10 mg/kg
Method: as §1, §2

In the case of `COc1cc(O)cc2oc(=O)c(N3CCN(C)CC3)c(C)c12` [IMM-H004, 7-hydroxy-5-methoxy-4-methyl-3-(4-methylpiperazin-1-yl)-coumarin], the “duration of plasma MDA lowering after administration” value [1] is reported as “at least 10 h”, the “effect on plasma MDA level” value ([1]; vs MCAO/R group) is reported as “significantly lower the increased MDA level at 2 h” and the “K m of IMM-H004G formation (glucuronidation)” value [2] is reported as 9.5 µM. The “V max of IMM-H004G formation (glucuronidation)” value [2] was 5.04 nmol/min/mg protein, the “recovery of IMM-H004G and IMM-H004 in bile” value ([3]; bile duct cannulated rats, until 24 h) was 76.1 % of intake and the “IMM-H004 in fecal specimens” value ([3]; rat feces, until 72 h) was 18 % of the dose. It also gave an AUC(0-inf) [4] of 1640 ng·h/mL, an AUC(0-t) [4] of 1640 ng·h/mL and a Cmax [4] of 7460 ng/mL. It also gave an MRT last ([4]; read-out: MRT(0-t)) of 10.8 ± 0.6 min, an MRT inf ([4]; read-out: MRT(0-∞)) of 11.4 ± 1.2 min and a half-life ([4]; read-out: t 1/2β (converted)) of 25.2 ± 1.8 min. For the same molecule, the Tmax ([4]; iv, 10 mg/kg, read-out: T max) was 1.8 min.
